Measurements published in patent publication US11345670B2, “Heterocyclic compounds for cancer imaging and treatment and methods for their use” (The University of British Columbia, priority 2015, dated 2022).

What follows are compounds tested on androgen receptor (AR) (assay: PSA (6.1 kb)-luciferase reporter assay in LNCaP cells induced with R1881). Conditions: Homo sapiens; LNCaP cells transiently transfected with PSA (6.1 kb)-luciferase; 1 h pre-treatment with compound, then R1881 (1 nM) for 24 h; value with standard error.
Format: cell-based
Experimental: LNCaP cells were transiently transfected with PSA (6.1 kb)-luciferase for 24 h prior to pre-treatment with compounds of the invention (e.g., compounds 1a, 9, 13) ranging in concentration from 62.5 ng/ml to 1.5 ug/ml for 1 hour before the addition of vehicle, or synthetic androgen, R1881 (1 nM) to induce luciferase production. After 24 h of incubation with R1881, the cells were harvested, and relative luciferase activities were determined. To determine the IC50, treatments were normalized to the predicted maximal activity induction (in the absence of test compounds, vehicle only).
`CC(C)(c1ccc(OCC(O)CCl)cc1)c1ccc(OCC(O)Cn2ccnc2)cc1` (stereo not drawn) [Compound 9, 1-chloro-3-(4-(2-(4-(2-hydroxy-3-(1H-imidazol-1-yl)propoxy)phenyl)propan-2-yl)phenoxy)propan-2-ol] gave an IC50 of 8.45 µM. `CC(C)(c1ccc(OCC(O)CCl)cc1)c1ccc(OCC(O)CN2CCOCC2)cc1` (stereo not drawn) [Compound 13, 1-chloro-3-(4-(2-(4-(2-hydroxy-3-morpholinopropoxy)phenyl)propan-2-yl)phenoxy)propan-2-ol] was tested, and the IC50 was 12.8 µM. `CC(C)(c1ccc(OC[C@H](O)CCl)cc1)c1ccc(OC[C@H](O)Cn2nnc(CO)c2I)cc1` [Compound 1a, (S)-1-chloro-3-(4-(2-(4-((R)-2-hydroxy-3-(4-(hydroxymethyl)-5-iodo-1H-1,2,3-triazol-1-yl)propoxy)phenyl)propan-2-yl)phenoxy)propan-2-ol] gave an IC50 of 3.23 µM.
